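Interpolation was linear, between the two tested concentrations surrounding the appropriate level; five concentrations were tested over 48 hours in 96-well plates. GI50: concentration for 50% inhibition of growth. TGI: total growth inhibition.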
Columns and labels:
Experiment in all cases: growth of human tumour cells (NCI), 48 h
[1] = test system: HCC-2998 colon
[2] = test system: MCF7 breast
[3] = test system: SW-620 colon
[4] = test system: LOX IMVI melanoma
[5] = test system: PC-3 prostate
[6] = test system: K-562 leukemia
[7] = test system: SN12C renal
[8] = test system: CAKI-1 renal
[9] = test system: 786-0 renal
[10] = test system: SK-MEL-5 melanoma
[11] = test system: ACHN renal
[12] = test system: OVCAR-5 ovarian
[13] = test system: CCRF-CEM leukemia
[14] = test system: KM12 colon
[15] = test system: UACC-62 melanoma
[16] = test system: OVCAR-3 ovarian
[17] = test system: MDA-MB-231 breast
[18] = test system: A549 NSCLC
[19] = test system: NCI-H226 lung
[20] = test system: SF-295 CNS
[21] = test system: OVCAR-8 ovarian
[22] = test system: UACC-257 melanoma
[23] = test system: IGROV1 ovarian
[24] = test system: HL-60(TB) leukemia
[25] = test system: NCI/ADR-RES ovarian
[26] = test system: SF-268 CNS
[27] = test system: M14 melanoma
[28] = test system: SK-MEL-28 melanoma
[29] = test system: NCI-H460 lung
[30] = test system: HCT-15 colon
[31] = test system: NCI-H23 lung
[32] = test system: TK-10 renal
[33] = test system: U251 CNS
[34] = test system: NCI-H522 lung
[35] = test system: SNB-75 CNS
[36] = test system: OVCAR-4 ovarian
[37] = test system: A498 renal
[38] = test system: RXF 393 renal
[39] = test system: SNB-19 CNS
[40] = test system: SK-MEL-2 melanoma
[41] = test system: T-47D breast
[42] = test system: HOP-62 NSCLC
[43] = test system: SR leukemia
[44] = test system: COLO 205 colon
[45] = test system: HT29 colon
[46] = test system: UO-31 renal
[47] = test system: BT-549 breast
[48] = test system: RPMI-8226 leukemia
[49] = test system: SF-539 CNS
[50] = test system: MDA-MB-435
[51] = test system: SK-OV-3 ovarian
[52] = test system: MDA-MB-468 breast
[53] = test system: HS 578T breast
[54] = test system: EKVX NSCLC
[55] = test system: HCT-116 colon
[56] = test system: MALME-3M melanoma
[57] = test system: MOLT-4 leukemia
[58] = test system: DU-145 prostate
[59] = test system: HOP-92 NSCLC

Work on `O=C(N/N=C/c1ccc(B(O)O)s1)c1[nH]c2ccc(Br)cc2c1-c1ccccc1` yielded a GI50 [1] of 364 nM, a TGI [1] of 5810 nM and a GI50 [2] of 333 nM. For the same compound, the TGI [2] was 10500 nM, the GI50 [3] was 395 nM and the TGI [3] was 14800 nM. For the same compound, the GI50 [4] was 350 nM, the TGI [4] was 6220 nM and the GI50 [5] was 476 nM. The TGI [5] was 16500 nM, the GI50 [6] was 354 nM and the TGI [6] was 16300 nM. It also gave a GI50 [7] of 374 nM, a TGI [7] of 8110 nM and a GI50 [8] of 444 nM. The TGI [8] was 13600 nM, the GI50 [9] was 411 nM and the TGI [9] was 8280 nM. It also gave a GI50 [10] of 215 nM, a TGI [10] of 497 nM and a GI50 [11] of 512 nM. The TGI [11] was 14000 nM, the GI50 [12] was 390 nM and the TGI [12] was 13900 nM. For the same compound, the GI50 [13] was 366 nM, the TGI [13] was 12600 nM and the GI50 [14] was 342 nM. For the same compound, the TGI [14] was 4900 nM, the GI50 [15] was 395 nM and the TGI [15] was 5920 nM. For the same compound, the GI50 [16] was 302 nM, the TGI [16] was 2960 nM and the GI50 [17] was 339 nM. The TGI [17] was 11300 nM, the GI50 [18] was 423 nM and the TGI [18] was 13400 nM. For the same compound, the GI50 [19] was 511 nM, the TGI [19] was 5430 nM and the GI50 [20] was 299 nM. The TGI [20] was 5380 nM, the GI50 [21] was 272 nM and the TGI [21] was 816 nM. For the same compound, the GI50 [22] was 1250 nM, the TGI [22] was 18200 nM and the GI50 [23] was 403 nM. For the same compound, the TGI [23] was 13100 nM, the GI50 [24] was 230 nM and the TGI [24] was 659 nM. For the same compound, the GI50 [25] was 238 nM, the TGI [25] was 587 nM and the GI50 [26] was 515 nM. For the same compound, the TGI [26] was 10200 nM, the GI50 [27] was 371 nM and the TGI [27] was 12700 nM. For the same compound, the GI50 [28] was 856 nM, the TGI [28] was 16700 nM and the GI50 [29] was 363 nM. It also gave a TGI [29] of 4100 nM, a GI50 [30] of 340 nM and a TGI [30] of 8830 nM. For the same compound, the GI50 [31] was 378 nM, the TGI [31] was 13200 nM and the GI50 [32] was 7960 nM. It also gave a TGI [32] of 22900 nM, a GI50 [33] of 311 nM and a TGI [33] of 4600 nM. It also gave a GI50 [34] of 208 nM, a TGI [34] of 549 nM and a GI50 [35] of 316 nM. For the same compound, the TGI [35] was 5630 nM, the GI50 [36] was 3560 nM and the TGI [36] was 24100 nM. The GI50 [37] was 8500 nM, the TGI [37] was 21600 nM and the GI50 [38] was 343 nM. For the same compound, the TGI [38] was 13600 nM, the GI50 [39] was 387 nM and the TGI [39] was 13500 nM. The GI50 [40] was 432 nM, the TGI [40] was 14000 nM and the GI50 [41] was 3740 nM. For the same compound, the TGI [41] was 22700 nM, the GI50 [42] was 557 nM and the TGI [42] was 11800 nM. It also gave a GI50 [43] of 364 nM, a TGI [43] of 14300 nM and a GI50 [44] of 231 nM. For the same compound, the TGI [44] was 515 nM, the GI50 [45] was 290 nM and the TGI [45] was 992 nM. It also gave a GI50 [46] of 1050 nM, a TGI [46] of 14100 nM and a GI50 [47] of 348 nM. For the same compound, the TGI [47] was 1020 nM, the GI50 [48] was 521 nM and the TGI [48] was greater than 52300 nM. It also gave a GI50 [49] of 227 nM, a TGI [49] of 551 nM and a GI50 [50] of 250 nM. For the same compound, the TGI [50] was 647 nM, the GI50 [51] was 691 nM and the TGI [51] was 15000 nM. For the same compound, the GI50 [52] was 235 nM, the TGI [52] was 572 nM and the GI50 [53] was 296 nM. It also gave a TGI [53] of 3440 nM, a GI50 [54] of 425 nM and a TGI [54] of 11200 nM. The GI50 [55] was 331 nM, the TGI [55] was 4340 nM and the GI50 [56] was 512 nM. The TGI [56] was 21100 nM, the GI50 [57] was 459 nM and the TGI [57] was 14400 nM. For the same compound, the GI50 [58] was 367 nM, the TGI [58] was 11600 nM and the GI50 [59] was 974 nM. The TGI [59] was 6340 nM.
